Drawing on ChEMBL document CHEMBL1158024, “Terpenoids of Syzygium formosanum” (J Nat Prod, 1999), this text covers EC50 for 1 compound.

The nature of this assay: Inhibition of moloney murine leukemia virus reverse transcriptase.

Broadly, the EC50 is the concentration that produces a half-maximal response. Consider `C=C(C)[C@@H]1CC[C@]2(C(=O)O)CC[C@]3(C)[C@H](CC[C@@H]4[C@@]5(C)CC[C@H](O)C(C)(C)[C@@H]5CC[C@]43C)[C@@H]12` [BETULINIC ACID], for which the EC50 turned out to be 1400 nM.
